Test results as given in article PMC9120017, “Inhibition mechanism of the chloride channel TMEM16A by the pore blocker 1PBC” (Nature Communications, 2022).
Like-named read-outs stand apart in the source and are kept apart here.

Molecular target: T1, mouse TMEM16A mutant Y598A (Mus musculus, UniProt Q8BHY3, Y598A)
T1 construct: expressed in transfected cells; host or cells: HEK293T
T1 sequence (Q8BHY3 1-960 Y598A): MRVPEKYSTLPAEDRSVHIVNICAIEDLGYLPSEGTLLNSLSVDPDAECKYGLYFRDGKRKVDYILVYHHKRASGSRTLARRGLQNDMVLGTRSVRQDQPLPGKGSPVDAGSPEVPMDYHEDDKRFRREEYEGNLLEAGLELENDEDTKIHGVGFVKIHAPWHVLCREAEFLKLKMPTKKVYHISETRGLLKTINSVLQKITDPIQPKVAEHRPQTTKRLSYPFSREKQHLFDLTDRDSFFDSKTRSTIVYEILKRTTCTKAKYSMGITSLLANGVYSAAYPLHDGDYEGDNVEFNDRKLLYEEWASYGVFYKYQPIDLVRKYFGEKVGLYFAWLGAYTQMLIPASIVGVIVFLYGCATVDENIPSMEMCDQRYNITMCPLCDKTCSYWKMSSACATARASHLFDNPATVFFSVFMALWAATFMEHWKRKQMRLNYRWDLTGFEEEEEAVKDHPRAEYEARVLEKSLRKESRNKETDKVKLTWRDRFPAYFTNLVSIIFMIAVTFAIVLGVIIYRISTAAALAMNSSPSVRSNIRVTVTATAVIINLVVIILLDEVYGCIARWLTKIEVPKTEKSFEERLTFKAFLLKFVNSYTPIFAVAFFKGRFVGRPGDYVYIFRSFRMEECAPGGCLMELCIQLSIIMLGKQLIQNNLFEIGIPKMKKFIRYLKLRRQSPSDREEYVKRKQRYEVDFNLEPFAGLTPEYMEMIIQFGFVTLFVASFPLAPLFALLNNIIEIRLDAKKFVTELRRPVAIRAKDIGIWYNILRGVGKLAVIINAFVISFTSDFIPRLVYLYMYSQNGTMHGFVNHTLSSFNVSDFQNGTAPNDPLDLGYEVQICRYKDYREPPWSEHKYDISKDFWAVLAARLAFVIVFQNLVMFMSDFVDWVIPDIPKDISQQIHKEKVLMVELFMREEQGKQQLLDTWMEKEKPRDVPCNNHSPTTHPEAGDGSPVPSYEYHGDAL
Test: Inside-out patch recording of 1PBC block, mutant Y598A
Format: cell-based
Details: for remaining activity at 3 µM: 1PBC conc 3; for remaining activity at 3 µM / remaining activity at 10 µM / remaining activity at 30 µM: read-out: relative current in 1PBC (avr); for remaining activity at 10 µM: 1PBC conc 10; for remaining activity at 30 µM: 1PBC conc 30
Description: HEK293T cells (ATCC CRL-1573) were maintained in Dulbecco’s modified Eagle’s medium (DMEM; Sigma-Aldrich) supplemented with 10 U ml^−1 penicillin, 0.1 mg ml^−1 streptomycin (Sigma-Aldrich), 2 mM L-glutamine (Sigma-Aldrich), and 10% FBS (Sigma-Aldrich) in a humidified atmosphere containing 5% CO2 at 37 °C. HEK293S GnTI^− cells (ATCC CRL-3022) were maintained in HyClone HyCell TransFx-H medium (GE Healthcare) supplemented with 10 U ml^−1 penicillin, 0.1 mg ml^−1 streptomycin, 4 mM L-glutamine, 0.15% poloxamer 188 (Sigma-Aldrich), and 1% FBS in an atmosphere containing 5% CO2 at 185 rpm at 37 °C. The ac splice variant of mouse TMEM16A (UniProt ID: Q8BHY3), mouse TMEM16B (UniProt ID: Q8CFW1), or mouse TMEM16F (UniProt ID: Q6P9J9) bearing a 3C cleavage site, a Venus YFP, a Myc tag, and a Streptavidin-binding peptide (SBP) downstream of the open reading frame in a modified pcDNA3.1 vector (Invitrogen) were used as described previously[21],[31]. Mutations were introduced using a modified QuikChange method[58] and were verified by sequencing.
HEK293T cells were transfected with 3–4 μg DNA per 6 cm Petri dish using the calcium phosphate co-precipitation method and were used within 24–96 h after transfection. Recordings were performed on inside-out patches excised from HEK293T cells expressing the construct of interest. Patch pipettes were pulled from borosilicate glass capillaries (O.D. 1.5 mm, I.D. 0.86 mm, Sutter Instrument) and were fire-polished with a microforge (Narishige) before use. Pipette resistance was typically 3–8 MΩ when filled with the recording solutions detailed below. Seal resistance was typically 4 GΩ or higher. Voltage-clamp recordings were made using Axopatch 200B, Digidata 1550, and Clampex 10.7 (Molecular Devices). Analog signals were filtered with the in-built 4-pole Bessel filter at 10 kHz and were digitized at 20 kHz. Solution exchange was achieved using a gravity-fed system through a theta glass pipette mounted on an ultra-fast piezo-driven stepper (Siskiyou). […] All recordings were performed at 20 °C.
A symmetrical ionic condition was used throughout. Stock solution with Ca^2+-EGTA contained 150 mM NaCl, 5.99 mM Ca(OH)2, 5 mM EGTA, and 10 mM HEPES at pH 7.40. Stock solution with EGTA contained 150 mM NaCl, 5 mM EGTA, and 10 mM HEPES at pH 7.40. Free Ca^2+ concentrations were adjusted by mixing the stock solutions at the required ratios calculated using the WEBMAXC program (http://web.stanford.edu/~cpatton/webmaxcS.htm). Patch pipettes were filled with the stock solution with Ca^2+-EGTA, which has a free Ca^2+ concentration of 1 mM. 1PBC (ChemBridge) stock was reconstituted in anhydrous DMSO (Sigma-Aldrich) at 100 mM and stored at −20 °C. Working solutions with 1PBC were prepared by serial dilution. Unless otherwise stated, experiments were performed at a saturating Ca^2+ concentration as shown in Supplementary Table 1 and the primary data were corrected for current rundown as described previously[21],[25].
Concentration-response relations, obtained from the ratio of the I-V plots before and after the application of the blocker, were fitted to the Hill equation,1 I/Imax=1/1+IC50/[blocker]^h where I/Imax is the normalized current responses, IC50 defines the concentration at which inhibition is at its half-maximum, and h is the Hill coefficient.

IC50 (0 mV, 2 µM Ca2+): 5 µM
remaining activity at 3 µM (0 mV): 62.2%
remaining activity at 10 µM (0 mV): 32.7%
remaining activity at 30 µM (0 mV): 16.1%
normalised current (avr) (1PBC 3, V 0 mV): -0.0008127
normalised current (avr) (1PBC 3, V 20 mV): 0.0806
normalised current (avr) (1PBC 3, V 40 mV): 0.1479
normalised current (avr) (1PBC 3, V 60 mV): 0.2094
normalised current (avr) (1PBC 3, V 80 mV): 0.2692
normalised current (avr) (1PBC 3, V 100 mV): 0.3374
normalised current (avr) (1PBC 3, V 120 mV): 0.4035
normalised current (avr) (1PBC 3, V 140 mV): 0.5334
normalised current (avr) (1PBC 3, V -20 mV): -0.0953
normalised current (avr) (1PBC 3, V -40 mV): -0.2038
normalised current (avr) (1PBC 3, V -60 mV): -0.3243
normalised current (avr) (1PBC 3, V -80 mV): -0.4624
normalised current (avr) (1PBC 3, V -100 mV): -0.5959
normalised current (avr) (1PBC 3, V -120 mV): -0.7447
normalised current (avr) (1PBC 3, V -140 mV): -0.8933
normalised current (avr) (1PBC 10, V 0 mV): -0.0004268
normalised current (avr) (1PBC 10, V 20 mV): 0.04176
normalised current (avr) (1PBC 10, V 40 mV): 0.07281
normalised current (avr) (1PBC 10, V 60 mV): 0.101
normalised current (avr) (1PBC 10, V 80 mV): 0.1339
normalised current (avr) (1PBC 10, V 100 mV): 0.1691
normalised current (avr) (1PBC 10, V 120 mV): 0.2139
normalised current (avr) (1PBC 10, V 140 mV): 0.279
normalised current (avr) (1PBC 10, V -20 mV): -0.05063
normalised current (avr) (1PBC 10, V -40 mV): -0.1149
normalised current (avr) (1PBC 10, V -60 mV): -0.2039
normalised current (avr) (1PBC 10, V -80 mV): -0.3102
normalised current (avr) (1PBC 10, V -100 mV): -0.4329
normalised current (avr) (1PBC 10, V -120 mV): -0.5455
normalised current (avr) (1PBC 10, V -140 mV): -0.6513
normalised current (avr) (1PBC 30, V 0 mV): -0.0002099
normalised current (avr) (1PBC 30, V 20 mV): 0.02319
normalised current (avr) (1PBC 30, V 40 mV): 0.04085
normalised current (avr) (1PBC 30, V 60 mV): 0.05628
normalised current (avr) (1PBC 30, V 80 mV): 0.08124
normalised current (avr) (1PBC 30, V 100 mV): 0.1064
normalised current (avr) (1PBC 30, V 120 mV): 0.1384
normalised current (avr) (1PBC 30, V 140 mV): 0.17
normalised current (avr) (1PBC 30, V -20 mV): -0.02219
normalised current (avr) (1PBC 30, V -40 mV): -0.05555
normalised current (avr) (1PBC 30, V -60 mV): -0.09343
normalised current (avr) (1PBC 30, V -80 mV): -0.1537
normalised current (avr) (1PBC 30, V -100 mV): -0.2141
normalised current (avr) (1PBC 30, V -120 mV): -0.2888
normalised current (avr) (1PBC 30, V -140 mV): -0.3717
IC50 (20 mV, 2 µM Ca2+): 4.35 µM
remaining activity at 3 µM (20 mV): 57.7%
remaining activity at 10 µM (20 mV): 29.9%
remaining activity at 30 µM (20 mV): 16.6%
IC50 (40 mV, 2 µM Ca2+): 3.57 µM
remaining activity at 3 µM (40 mV): 52.9%
remaining activity at 10 µM (40 mV): 26.1%
remaining activity at 30 µM (40 mV): 14.6%
IC50 (60 mV, 2 µM Ca2+): 3.16 µM
remaining activity at 3 µM (60 mV): 49.9%
remaining activity at 10 µM (60 mV): 24.1%
remaining activity at 30 µM (60 mV): 13.4%
log-fold IC50 (change of mutant vs WT) (80 mV): 0.1976
IC50 (80 mV, 2 µM Ca2+): 3.04 µM
remaining activity at 3 µM (80 mV): 48.1%
remaining activity at 10 µM (80 mV): 23.9%
remaining activity at 30 µM (80 mV): 14.5%
IC50 (100 mV, 2 µM Ca2+): 3.06 µM
remaining activity at 3 µM (100 mV): 48%
remaining activity at 10 µM (100 mV): 24.1%
remaining activity at 30 µM (100 mV): 15.1%
IC50 (120 mV, 2 µM Ca2+): 3.13 µM
remaining activity at 3 µM (120 mV): 47.7%
remaining activity at 10 µM (120 mV): 25.3%
remaining activity at 30 µM (120 mV): 16.4%
IC50 (140 mV, 2 µM Ca2+): 3.81 µM
remaining activity at 3 µM (140 mV): 53.3%
remaining activity at 10 µM (140 mV): 27.9%
remaining activity at 30 µM (140 mV): 17%
IC50 (-20 mV, 2 µM Ca2+): 5.71 µM
remaining activity at 3 µM (-20 mV): 66.7%
remaining activity at 10 µM (-20 mV): 35.5%
remaining activity at 30 µM (-20 mV): 15.5%
IC50 (-40 mV, 2 µM Ca2+): 7.02 µM
remaining activity at 3 µM (-40 mV): 71.1%
remaining activity at 10 µM (-40 mV): 40.1%
remaining activity at 30 µM (-40 mV): 19.4%
IC50 (-60 mV, 2 µM Ca2+): 8.86 µM
remaining activity at 3 µM (-60 mV): 75.3%
remaining activity at 10 µM (-60 mV): 47.3%
remaining activity at 30 µM (-60 mV): 21.7%
IC50 (-80 mV, 2 µM Ca2+): 11.2 µM
remaining activity at 3 µM (-80 mV): 79.4%
remaining activity at 10 µM (-80 mV): 53.2%
remaining activity at 30 µM (-80 mV): 26.4%
IC50 (-100 mV, 2 µM Ca2+): 13.5 µM
remaining activity at 3 µM (-100 mV): 81.5%
remaining activity at 10 µM (-100 mV): 59.2%
remaining activity at 30 µM (-100 mV): 29.3%
IC50 (-120 mV, 2 µM Ca2+): 15.9 µM
remaining activity at 3 µM (-120 mV): 85.1%
remaining activity at 10 µM (-120 mV): 62.4%
remaining activity at 30 µM (-120 mV): 33%
IC50 (-140 mV, 2 µM Ca2+): 18 µM
remaining activity at 3 µM (-140 mV): 87.9%
remaining activity at 10 µM (-140 mV): 64.1%
remaining activity at 30 µM (-140 mV): 36.6%
IC50 (Y598A, V 0 mV): 5 µM
IC50 (Y598A, V 20 mV): 4.35 µM
IC50 (Y598A, V 40 mV): 3.57 µM
IC50 (Y598A, V 60 mV): 3.16 µM
IC50 (Y598A, V 80 mV): 3.04 µM
IC50 (Y598A, V 100 mV): 3.06 µM
IC50 (Y598A, V 120 mV): 3.13 µM
IC50 (Y598A, V 140 mV): 3.81 µM
IC50 (Y598A, V -20 mV): 5.71 µM
IC50 (Y598A, V -40 mV): 7.02 µM
IC50 (Y598A, V -60 mV): 8.86 µM
IC50 (Y598A, V -80 mV): 11.2 µM
IC50 (Y598A, V -100 mV): 13.5 µM
IC50 (Y598A, V -120 mV): 15.9 µM
IC50 (Y598A, V -140 mV): 18 µM
SMILES: N#Cc1c(C(F)(F)F)cc(O)n2c1nc1ccccc12 [1PBC]
